# Laboratory results taken from patent US12419308B2, “Phenylpyrazole insecticide compounds and compositions” (priority 2023, dated 2025).
# Like-named read-outs stand apart in the source and are kept apart here.
# Experiments:
# [1] = test system: Human Cryopreserved Hepatocytes; assay: Metabolic stability in human cryopreserved hepatocytes; type: in vitro ADME
# Procedure: The metabolic stability of the Compounds of Examples 1 and 4 is therefore evaluated to determine whether metabolic degradation results in metabolites of concern.
# Briefly, Human Cryopreserved Hepatocytes (Gibco, lot. HUE125) are added to incubation wells in a 96-well assay plate at a density of 500,000 cells/mL in William's E Medium. […] The wells are incubated at 37° C. and stop solution is added to wells at time points: 0, 30, 60, 120, 240 min. The stop solution is ice-cold solution containing 0.5 μM labetalol in acetonitrile (100 μL/well) (2:1, vol/vol). Each time point is tested in triplicate. Analysis is carried out by LC-MS.
# • Instrument: QExactive • Column: Luna Omega 1.6 μm polar C18 100 Å (150×2.1 mm) • Column temperature: 40° C. • Column No: 102+pre-column installed • Injection volume: 2 μl • Flux: 0.40 mL/min • Polarity: Negative • Fluent A: water Milli Q+0.1% FA • Fluent B: ACN+0.1% FA • Acquisition method: Full MS+DDS on the IL obtained with MassMetaSite (peak others ON).
# [2] = test system: adult worker honeybees, Apis mellifera L; details: contact
# Text: In accordance with OECD Test Guidelines No. 213 and 214, the test is considered valid if: (1) the average mortality of the control groups is ≤10% at the end of the test; and the average, control-corrected mortality of the reference item groups is ≥50% at the end of the test, at the tested dose (internal validity criteria according to POS BT200).
# Young Apis mellifera L. worker honeybees are randomly collected in the morning of use or the day before from an adequately fed, healthy diseases-free and queen right beehive, not treated with chemical substances. Hives from an established apiary colony are used, and the colonies are inspected periodically, according to standard bee-keeping practices. All colonies are kept outside under field conditions and bees collect food from the environment. The last treatment against Varroa mites was done in November 2023. The bees are fed ad libitum with a water sucrose solution 50% w/v (or 500 g/L), prepared with tap water.
# Adult worker honeybees are exposed to three increasing doses of the test item (see Table 2) by direct application to the thorax (droplets, see section 4.5.2). One control group is treated with propanol-water solution (ratio 80%-20%) in addition to test item groups.
# Bee mortality is recorded after 4, 24 and 48 hours, and compared with the control value. If the mortality rate increases by more than 10% between 24 and 48 hours, whilst the control mortality rate remains ≤10%, the is extended to a maximum of 96 hours.
# The test item is diluted in propanol-water solution (ratio 80%-20%) to prepare the contact solutions.
# The bees used for the contact test are anaesthetized with carbon dioxide and individually treated by topical application of 2 μL of the test solutions onto the thorax using a micro applicator. The honeybees are then be moved to the cages and fed ad libitum with sucrose solution.
# Disposable and well-ventilated cages with an internal volume not lower than 200 cm^3 are used. Each cage is equipped with a transparent lid, for a suitable observation of the bees from outside. The upper side of the cage has at least one hole for inserting the feeder: a syringe filled of 50% (w/v) aqueous sucrose solution is inserted in one hole.
# The tests are conducted under the following conditions: (a) Temperature: 25.00[…]; (b) Relative humidity: 60.00[…], The honeybees are kept under constant darkness except during the assessments. Throughout the experimental phase, the temperature and relative humidity is continuously recorded with a dedicated data-logger with sensors located close to the test units.
# The number of dead honeybees per cage is recorded after 4, 24 and 48 hours. If a prolonged observation period is required, further assessments are made every 24 hours, tip to a maximum duration of 96 hours. The amount of diet consumed per group is quantitatively estimated if treated diet will be left after 6 hours of exposure.
# Data is summarized in tabular form, showing the number of live, dead and abnormal bees per experimental group. The mortality of each replicate is calculated as a percentage, comparing the number of dead bees to those introduced at the beginning. The mean value of the treated group is compared to the mean mortality of the respective control group(s) using the Abbott's formula modified by Schneider-Orelli (POS BT 200): […]
# [3] = human hepatocytes, up to 240 min, 1 μM
compound,measurement,setting,value
"N#Cc1nn(-c2c(Cl)cc(C(F)(F)F)cc2Cl)c2nc(O)cc(C(F)(F)F)c12 [Example 1, 1-(2,6-dichloro-4-(trifluoromethyl)phenyl)-6-hydroxy-4-(trifluoromethyl)-1H-pyrazolo[3,4-b]pyridine-3-carbonitrile]",Original compound still present,"[1]; after 240 minutes, 1 μM, 500,000 cells/mL, 37° C.",approximately 95.5%
same,Metabolic stability (in words),[1]; [3],metabolically stable
same,Metabolite peaks observed,[1]; [3],no particular peaks indicative of metabolites
same,% CM (4 hours),"[2]; group T1, dose 0.002 μg/bee",0.0%
same,% CM (24 hours),"[2]; group T1, dose 0.002 μg/bee",7.1%
same,% CM (48 hours),"[2]; group T1, dose 0.002 μg/bee",0.0%
same,% CM (4 hours),"[2]; group T2, dose 0.004 μg/bee",0.0%
same,% CM (24 hours),"[2]; group T2, dose 0.004 μg/bee",0.0%
same,% CM (48 hours),"[2]; group T2, dose 0.004 μg/bee",0.0%
same,% CM (4 hours),"[2]; group T3, dose 0.006 μg/bee",0.0%
same,% CM (24 hours),"[2]; group T3, dose 0.006 μg/bee",50.0%
same,% CM (48 hours),"[2]; group T3, dose 0.006 μg/bee",57.7%
